Read-outs that look alike come from different tables or passages of the source.
Key:
Test in all cases: Test C pre/postemergence
Type in all cases: in vivo
[1] = tested on: eastern black nightshade (Solanum ptycanthum); conditions: Preemergence
Procedure, shortened: (§1)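 Applications: preemergence onto seeded soil and postemergence onto 1- to 4-leaf seedlings, compound carried in non-phytotoxic solvent plus surfactant. Kept in greenhouse 12 to 14 days. Scored visually relative to untreated controls, 0 (no effect) to 100 (complete control).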

[2] = tested on: common ragweed (Ambrosia elatior); conditions: for pest or weed control at 31 g/ha: 31 g ai/ha
Procedure, shortened: as §1

[3] = tested on: bermudagrass (Cynodon dactylon); conditions: for pest or weed control at 31 g/ha: 31 g ai/ha
Procedure, shortened: as §1

[4] = Preemergence, 62 g ai/ha, scale 0 to 100, 0 no effect, 100 complete control
[5] = Preemergence, 125 g ai/ha, scale 0 to 100
[6] = Preemergence, 250 g ai/ha, scale 0 to 100
[7] = Preemergence, 500 g ai/ha, scale 0 to 100
[8] = Postemergence, 62 g ai/ha, scale 0 to 100 (0 no effect, 100 complete control)
[9] = Postemergence, 250 g ai/ha, scale 0 to 100
[10] = Postemergence, 500 g ai/ha, scale 0 to 100

For `Nc1nc(C2CC2)nc(C(=O)OCc2ccccc2)c1Cl` [Compound 78, phenylmethyl 6-amino-5-chloro-2-cyclopropyl-4-pyrimidinecarboxylate], the pest or weed control at 16 g/ha ([1]; Solanum, pre-emergence, 16 g ai/ha, scale 0 to 100, 0 no effect, 100 complete control, read-out: Plant response rating, Nightshade) was 0%, the pest or weed control at 31 g/ha ([1]; Solanum, pre-emergence, 31 g ai/ha, scale 0 to 100, 0 no effect, 100 complete control, read-out: Plant response rating, Nightshade) was 30% and the pest or weed control at 62 g/ha ([1]; Solanum, pre-emergence, 62 g ai/ha, scale 0 to 100, 0 no effect, 100 complete control, read-out: Plant response rating, Nightshade) was 60%. For the same compound, the pest or weed control at 31 g/ha ([2]; Ambrosia artemisiifolia, post-emergence, Postemergence, read-out: Plant response rating (scale of 0 to 100), Ragweed) was 70%, the pest or weed control at 62 g/ha ([2]; Ambrosia artemisiifolia, post-emergence, Postemergence, 62 g ai/ha, read-out: Plant response rating (scale of 0 to 100), Ragweed) was 85% and the pest or weed control at 125 g/ha ([2]; Ambrosia artemisiifolia, post-emergence, Postemergence, 125 g ai/ha, scale 0 to 100 (0 no effect, 100 complete control), read-out: Ragweed plant response rating) was 95%. For the same compound, the pest or weed control at 250 g/ha ([2]; Ambrosia artemisiifolia, post-emergence, Postemergence, 250 g ai/ha, scale 0 to 100, read-out: Plant response rating, Ragweed) was 100%, the pest or weed control at 16 g/ha ([2]; Ambrosia artemisiifolia, pre-emergence, Preemergence, 16 g ai/ha, scale 0 to 100, 0 no effect, 100 complete control, read-out: Plant response rating, Ragweed) was 10% and the pest or weed control at 31 g/ha ([2]; Ambrosia artemisiifolia, pre-emergence, Preemergence, scale 0 to 100, 0 no effect, 100 complete control, read-out: Plant response rating, Ragweed) was 65%. It also gave a pest or weed control at 62 g/ha ([2]; Ambrosia artemisiifolia, pre-emergence, Preemergence, 62 g ai/ha, scale 0 to 100, 0 no effect, 100 complete control, read-out: Plant response rating, Ragweed) of 80%, a pest or weed control at 31 g/ha ([3]; Cynodon dactylon, post-emergence, Postemergence, read-out: Plant response rating (scale of 0 to 100), Bermudagrass) of 60% and a pest or weed control at 62 g/ha ([3]; Cynodon dactylon, post-emergence, Postemergence, 62 g ai/ha, scale 0 to 100 (0 no effect, 100 complete control), read-out: Bermudagrass plant response rating) of 60%. The pest or weed control at 125 g/ha ([3]; Cynodon dactylon, post-emergence, Postemergence, 125 g ai/ha, scale 0 to 100 (0 no effect, 100 complete control), read-out: Bermudagrass plant response rating) was 60%, the pest or weed control at 250 g/ha ([3]; Cynodon dactylon, post-emergence, Postemergence, 250 g ai/ha, scale 0 to 100, read-out: Plant response rating, Bermudagrass) was 65% and the pest or weed control at 16 g/ha ([3]; Cynodon dactylon, pre-emergence, Preemergence, 16 g ai/ha, scale 0 to 100, 0 no effect, 100 complete control, read-out: Plant response rating, Bermudagrass) was 0%. The pest or weed control at 31 g/ha ([3]; Cynodon dactylon, pre-emergence, Preemergence, scale 0 to 100, 0 no effect, 100 complete control, read-out: Plant response rating, Bermudagrass) was 0%, the pest or weed control at 62 g/ha ([3]; Cynodon dactylon, pre-emergence, Preemergence, 62 g ai/ha, scale 0 to 100, 0 no effect, 100 complete control, read-out: Plant response rating, Bermudagrass) was 0% and the pest or weed control at 125 g/ha ([3]; Cynodon dactylon, pre-emergence, Preemergence, 125 g ai/ha, scale 0 to 100, read-out: Plant response rating, Bermudagrass) was 20%.

In the case of `CCOC(=O)Cc1nc(C2CC2)nc(N=CN(C)C)c1Br` [Compound 33], the “Plant response rating, Nightshade” value ([1]; 62 g ai/ha, scale 0 to 100, 0 no effect, 100 complete control) is reported as 0, the “Plant response rating, Nightshade” value ([1]; 125 g ai/ha, scale 0 to 100) is reported as 50 and the “Plant response rating, Nightshade” value ([1]; 250 g ai/ha, scale 0 to 100) is reported as 95. For the same compound, the “Plant response rating, Nightshade” value ([1]; 500 g ai/ha, scale 0 to 100) was 100, the “Plant response rating, Ragweed” value [2, 4] was 0 and the “Plant response rating, Ragweed” value [2, 5] was 20. For the same compound, the “Plant response rating, Ragweed” value [2, 6] was 70, the “Plant response rating, Ragweed” value [2, 7] was 90 and the “Plant response rating, Bermudagrass” value [3, 4] was 0. The “Plant response rating, Bermudagrass” value [3, 5] was 0, the “Plant response rating, Bermudagrass” value [3, 6] was 0 and the “Plant response rating, Bermudagrass” value [3, 7] was 0.

`COC(=O)CNc1nc(C2CC2)nc(C(=O)OC)c1Br` [Compound 10] was tested, and the “Plant response rating, Nightshade” value ([1]; 250 g ai/ha, scale 0 to 100) was 20, the “Plant response rating, Nightshade” value ([1]; 500 g ai/ha, scale 0 to 100) was 95 and the “Ragweed plant response rating” value [2, 8] was 45. The “Ragweed plant response rating” value ([2]; Postemergence, 125 g ai/ha, scale 0 to 100 (0 no effect, 100 complete control)) was 65, the “Plant response rating, Ragweed” value [2, 9] was 80 and the “Plant response rating, Ragweed” value [2, 10] was 90. For the same compound, the “Plant response rating, Ragweed” value [2, 4] was 0, the “Plant response rating, Ragweed” value [2, 5] was 0 and the “Plant response rating, Ragweed” value [2, 6] was 55. The “Plant response rating, Ragweed” value [2, 7] was 85, the “Bermudagrass plant response rating” value [3, 8] was 0 and the “Plant response rating, Bermudagrass” value [3, 9] was 0. The “Plant response rating, Bermudagrass” value [3, 10] was 0, the “Plant response rating, Bermudagrass” value ([3]; Postemergence, 125 g ai/ha, scale 0 to 100) was 0 and the “Plant response rating, Bermudagrass” value [3, 4] was 0. For the same compound, the “Plant response rating, Bermudagrass” value [3, 5] was 0, the “Plant response rating, Bermudagrass” value [3, 6] was 0 and the “Plant response rating, Bermudagrass” value [3, 7] was 0.
